Consider two compounds from US20060100173A1, “Ophthalmic solution” (priority 2004, published 2006).

Where a name gives a salt, the structure may show the parent alone.

The assay concerns five organisms. In words: Antimicrobial activity, sum of log drops of five organisms. The note with it: HA 1.7M relative to non-HA control and/or lower molecular weight HA compositions; Tris buffered. The class given is cell-based.

For the compound `CCCCC(CC)CNC(=N)NC(=N)NCCCCCCNC(=N)NC(=N)NCC(CC)CCCC` (centres unmarked) [ALX, Alexidine Dihydrochloride], the “reduction of the sum of the kill level by HA of MW 1.7M” value is recorded as “about 2 log”.
The result for “poly[hexamethylene biguanide hydrochloride] [PHMB]” reads “about 4 log”.
